Experimental data taken from patent US4297359A, “Anti-ulcer compositions containing certain pyridyl oxime ethers” (ACF Chemiefarma NV, priority 1978, dated 1981).
Where two headings read alike, the source gives them in different places.

Assays:
[1] = test system: indomethacin induced gastric damage; assay: Anti-ulcer activity: inhibition of indomethacin induced gastric damage in the rat (method of Elegbe); assay type: in vivo; details: po, 5 h; for inhibition in vivo at 100 mg/kg: read-out: % Inhibition (of gastric damage); for inhibition in vivo at 50 mg/kg: 50 mg/kg (footnote *) orally
Protocol: Rats were starved overnight, given indomethacin subcutaneously (15 mg/kg) and sacrificed 5 hours later. Stomachs were inflated with 0.9% saline, cut along the greater curvature, pinned out and scored for gastric damage by the following system:
Score 1-3 according to the degree of erythema and slight haemorrhage.
Score 4-6 according to the degree of mucosal erosion.
Score 7-9 according to the depth of gastric damage.
Compound or vehicle was administered orally 30 minutes prior to, and at 2 hours after dosing with indomethacin. Mean values per treatment were obtained using the above scoring system and the Mann Witney test applied for significance between such values.

[2] = test system: gastric secretion; assay: Effects on Gastric Secretion in the Pyloric Ligated Rat (method of Shay et al.); assay type: in vivo; details: intraduodenal, 100 mg/kg i.d., 3 hours
Source text: 1. Effects on Gastric Secretion in the Pyloric Ligated Rat
The method as described by Shay et al. (Gastroenterol. 26, 906 (1945)) was used. After overnight starvation the pylorus of a rat was ligated under halothane aenesthesia and the compound under test or vehicle only administered intraduodenally and the rats allowed to recover. They were sacrificed three hours later and the gastric juice removed. After measurement of the volume of secretion, its hydrogen ion concentration, [H^+ ], was determined by titration with 0.5 n NaOH to pH 7. Groups of 4-6 animals were used for each treatment and the inhibitory effect of the compound was ascertained by comparison of the mean values obtained with those from a simultaneously set up control group of animals which received vehicle only. Students `t` test was applied for significance between groups. The mean values for % inhibition obtained for a number of experiments are shown in the following Table 1, the dosage being 100 mg/kg i.d.

[3] = test system: acetylcholine; details: Farmaco. Ed. Sci. 19, 668-702 (1964); cited from earlier work
[4] = test system: androgen; details: J. Pharm. Sci. 58, 138-141 (1969); cited from earlier work
[5] = 100 mg/kg orally, 30 minutes prior to and 2 hours after indomethacin (15 mg/kg s.c.)
[6] = read-out: % Inhibition, Volume (of gastric secretion)
[7] = read-out: % Inhibition, [H^+ ] (hydrogen ion concentration of gastric juice)
[8] = 30 minutes prior to and 2 hours after indomethacin (15 mg/kg s.c.)

CON=C(Cc1ccccn1)c1ccccc1 [Compound 16, phenyl 2-pyridinylmethyl ketone, O-methyl oxime]
inhibition in vivo at 100 mg/kg [1, 5]: 72%
inhibition in vivo at 100 mg/kg [2, 6]: 46%
inhibition in vivo at 100 mg/kg [2, 7]: 25%

CN(C)CCCON=C(c1ccccn1)c1cccs1 [Compound 30, 2-pyridinyl 2-thienyl ketone, O-3-N,N-dimethylaminopropyl oxime]
inhibition in vivo at 100 mg/kg [1, 5]: 77%
inhibition in vivo at 100 mg/kg [2, 6]: 78%
inhibition in vivo at 100 mg/kg [2, 7]: 64%

CO/N=C(\c1ccncc1)c1ccc(Cl)cc1 [Compound 9, 4-chlorophenyl 4-pyridinyl ketone, O-methyl oxime]
inhibition in vivo at 100 mg/kg [1, 5]: 80%

CON=C(c1ccncc1)c1ccc(Cl)c(Cl)c1 [Compound 10, 3,4-dichlorophenyl 4-pyridinyl ketone, O-methyl oxime]
inhibition in vivo at 100 mg/kg [2, 7]: 49%

CON=C(c1ccccn1)c1ccccn1 [Compound 17, di-2-pyridinyl ketone, O-methyl oxime]
inhibition in vivo at 100 mg/kg [1, 5]: 76%
inhibition in vivo at 100 mg/kg [2, 6]: 83%
inhibition in vivo at 100 mg/kg [2, 7]: 14%

C=CCON=C(c1ccccc1)c1ccncc1 [Compound 22, phenyl 4-pyridinyl ketone, O-allyl oxime]
inhibition in vivo at 100 mg/kg [1, 5]: 79%
inhibition in vivo at 100 mg/kg [2, 6]: 76%

CON=C(c1ccncc1)c1ccc(CO)cc1 [Compound 19, 4-hydroxymethylphenyl 4-pyridinyl ketone, O-methyl oxime]
inhibition in vivo at 100 mg/kg [1, 5]: 71%
inhibition in vivo at 100 mg/kg [2, 6]: 66%
inhibition in vivo at 100 mg/kg [2, 7]: 35%

CO/N=C(\c1ccncc1)c1ccc(F)cc1 [Compound 8, 4-fluorophenyl 4-pyridinyl ketone, O-methyl oxime]
inhibition in vivo at 100 mg/kg [1, 5]: 100%
inhibition in vivo at 100 mg/kg [2, 6]: 76%
inhibition in vivo at 100 mg/kg [2, 7]: 11%

CCON=C(c1ccccc1)c1ccncc1 [Compound 21, phenyl 4-pyridinyl ketone, O-ethyl oxime]
inhibition in vivo at 50 mg/kg [1, 8]: 100%
inhibition in vivo at 100 mg/kg [2, 6]: 77%
inhibition in vivo at 100 mg/kg [2, 7]: 24%

C[N+](C)(C)CCON=C(c1ccccc1)c1ccccn1.[I-] [phenyl 2-pyridinyl ketone, O-dimethylaminoethyl oxime methiodide]
acetylcholine antagonistic activity [3]: showed acetylcholine antagonistic activity

CON=C(c1ccccn1)c1cccs1 [Compound 11, 2-pyridinyl 2-thienyl ketone, O-methyl oxime]
inhibition in vivo at 100 mg/kg [1, 5]: 78%
inhibition in vivo at 100 mg/kg [2, 6]: 84%
inhibition in vivo at 100 mg/kg [2, 7]: 36%

CN(C)CCON=C(c1ccccc1)c1ccncc1 [Compound 28, phenyl 4-pyridinyl ketone, O-2-N,N-dimethylaminoethyl oxime]
inhibition in vivo at 100 mg/kg [1, 5]: 92%
inhibition in vivo at 100 mg/kg [2, 6]: 83%
inhibition in vivo at 100 mg/kg [2, 7]: 92%

CO/N=C(\c1ccncc1)c1ccc(OC)cc1 [Compound 7, 4-methoxyphenyl 4-pyridinyl ketone, O-methyl oxime]
inhibition in vivo at 100 mg/kg [1, 5]: 88%

CN(C)CCCON=C(c1ccccc1)c1ccccn1 [Compound 25, phenyl 2-pyridinyl ketone, O-3-N,N-dimethylaminopropyl oxime]
inhibition in vivo at 100 mg/kg [1, 5]: 77%
inhibition in vivo at 100 mg/kg [2, 6]: 91%
inhibition in vivo at 100 mg/kg [2, 7]: 65%

CN(C)CCCON=C(c1ccccc1)c1cccnc1 [Compound 27, phenyl 3-pyridinyl ketone, O-3-N,N-dimethylaminopropyl oxime]
inhibition in vivo at 100 mg/kg [2, 6]: 85%

CN(C)CCCON=C(c1ccccc1)c1ccncc1 [Compound 29, phenyl 4-pyridinyl ketone, O-3-N,N-dimethylaminopropyl oxime]
inhibition in vivo at 100 mg/kg [1, 5]: 65%
inhibition in vivo at 100 mg/kg [2, 6]: 72%
inhibition in vivo at 100 mg/kg [2, 7]: 45%

CON=C(c1ccncc1)c1ccc(C(F)(F)F)cc1 [Compound 18, 4-pyridinyl 4-trifluoromethylphenyl ketone, O-methyl oxime]
inhibition in vivo at 100 mg/kg [2, 6]: 59%

CN(C)CCON=C(c1ccccc1)c1ccccn1 [Compound 24, phenyl 2-pyridinyl ketone, O-2-N,N-dimethylaminoethyl oxime]
inhibition in vivo at 100 mg/kg [1, 5]: 100%
inhibition in vivo at 100 mg/kg [2, 6]: 81%
inhibition in vivo at 100 mg/kg [2, 7]: 36%

N#CCON=C(c1ccccc1)c1ccncc1 [Compound 20, Phenyl 4-pyridinyl ketone, O-cyanomethyl oxime]
inhibition in vivo at 100 mg/kg [1]: 96%

CO/N=C(\c1ccccc1)c1ccncc1 [Compound 4, phenyl 4-pyridinyl ketone, O-methyl oxime]
inhibition in vivo at 100 mg/kg [1, 5]: 77%
inhibition in vivo at 100 mg/kg [2, 6]: 82%
inhibition in vivo at 100 mg/kg [2, 7]: 50%

CO/N=C(\c1ccccc1)c1cccnc1 [Compound 3, phenyl 3-pyridinyl ketone, O-methyl oxime]
inhibition in vivo at 50 mg/kg [1, 8]: 82%
inhibition in vivo at 100 mg/kg [2, 6]: 87%
inhibition in vivo at 100 mg/kg [2, 7]: 50%

CN(C)CCON=C(c1ccccc1)c1cccnc1 [Compound 26, phenyl 3-pyridinyl ketone, O-2-N,N-dimethylaminoethyl oxime]
inhibition in vivo at 100 mg/kg [2, 6]: 84%

CON=C(c1ccsc1)c1ccccn1 [Compound 12, 2-pyridinyl 3-thienyl ketone, O-methyl oxime]
inhibition in vivo at 100 mg/kg [1, 5]: 100%
inhibition in vivo at 100 mg/kg [2, 6]: 78%
inhibition in vivo at 100 mg/kg [2, 7]: 20%

CON=C(c1ccncc1)c1ccc(C)cc1 [Compound 6, 4-methylphenyl 4-pyridinyl ketone, O-methyl oxime]
inhibition in vivo at 100 mg/kg [1, 5]: 80%
inhibition in vivo at 100 mg/kg [2, 6]: 81%
inhibition in vivo at 100 mg/kg [2, 7]: 89%

CON=C(c1ccncc1)c1cccs1 [Compound 14, 4-pyridinyl 2-thienyl ketone, O-methyl oxime]
inhibition in vivo at 100 mg/kg [1, 5]: 77%

CON=C(c1ccccc1)c1ccncc1 [Compound 1, Phenyl 4-pyridinyl ketone, O-methyl oxime]
inhibition in vivo at 50 mg/kg [1, 8]: 86%
inhibition in vivo at 100 mg/kg [2, 6]: 82%
inhibition in vivo at 100 mg/kg [2, 7]: 41%

C#CCON=C(c1ccccc1)c1ccncc1 [Compound 23, phenyl 4-pyridinyl ketone, O-propargyl oxime]
inhibition in vivo at 100 mg/kg [2, 6]: 81%

CO/N=C(\c1ccccc1)c1ccccn1 [Compound 2, phenyl 2-pyridinyl ketone, O-methyl oxime]
inhibition in vivo at 50 mg/kg [1, 8]: 79%
inhibition in vivo at 100 mg/kg [2, 6]: 76%
inhibition in vivo at 100 mg/kg [2, 7]: 33%

CO/N=C(/c1ccccc1)c1cc[n+]([O-])cc1 [Compound 32, Phenyl 4-pyridinyl ketone, O-methyl oxime, N-oxide (Z-isomer)]
inhibition in vivo at 100 mg/kg [1, 5]: 64%
inhibition in vivo at 100 mg/kg [2, 6]: 84%
inhibition in vivo at 100 mg/kg [2, 7]: 32%

COc1ccc(C(=NOCCN(C)C)c2cccs2)cc1 [4-methoxyphenyl 2-thienyl ketone, O-dimethylaminoethyl oxime]
anti-androgenic activity [4]: showed anti-androgenic activity
effective dose relative to toxic dose [4]: the effective dose was very close to the toxic dose

CN(C)CCON=C(Cc1ccccn1)c1ccccc1 [phenyl 2-picolinyl ketone, O-dimethylaminoethyl oxime]
effective dose relative to toxic dose [4]: the effective dose was very close to the toxic dose

CN(C)CCCON=C(c1ccccn1)c1ccco1 [Compound 31, 2-furyl 2-pyridinyl ketone, O-3-N,N-dimethylaminopropyl oxime]
inhibition in vivo at 100 mg/kg [1, 5]: 92%
inhibition in vivo at 100 mg/kg [2, 6]: 70%
inhibition in vivo at 100 mg/kg [2, 7]: 30%
